In patent US12384780B2, “PARP1 inhibitors and uses thereof” (XinThera, Inc., priority 2022, dated 2025):

Experiments:
[1] = target: T1, PARP1 (Homo sapiens, UniProt P09874); experiment: Biochemical fluorescent polarization (FP) assay, displacement of PARPi-FL, PARP1; format: binding; conditions: 20 nM protein, 3 nM PARPi-FL, 4 h at room temperature; read-out: FP PARP1 pIC50 (converted)
T1 construct: made in house
Experimental: (§1) Compounds were characterized using an assay measuring the displacement of a commercially available fluorescently labeled PARP 1/2 inhibitor (PARPi-FL, Tocris Biosciences, #6461) as exemplified in assays performed in WO2014/064149 and WO2021/013735A1. The assay was performed utilizing the following method: Compounds were dissolved in DMSO an Echo550 liquid handler was utilized to make serial dilations in the desired concentration range in Optiplate-384F plates. 100% DMSO was used for the high (with protein) and low (without protein) control samples. 20 nL of compound or DMSO alone was added to individual assay plate wells. PARP1 and PARP2 protein were expressed, purified, and diluted in assay buffer containing 50 mM Tris pH 8.0, 0.001% Triton X-100, 10 mM MgCl2, 150 mM NaCl to a final concentration of 20 nM. The PARPi-FL was then added at a final concentration of 3 nM. The assay plate was centrifuged at 1000 rpm for 1 min and incubated for 4 h at room temperature. […] [formula]

[2] = target: T2, PARP2 (Homo sapiens, UniProt Q9UGN5); experiment: Biochemical fluorescent polarization (FP) assay, displacement of PARPi-FL, PARP2; format: binding; conditions: 20 nM protein, 3 nM PARPi-FL, 4 h at room temperature; read-out: FP PARP2 pIC50 (converted)
T2 construct: made in house
T2 sequence (Q9UGN5 whole entry): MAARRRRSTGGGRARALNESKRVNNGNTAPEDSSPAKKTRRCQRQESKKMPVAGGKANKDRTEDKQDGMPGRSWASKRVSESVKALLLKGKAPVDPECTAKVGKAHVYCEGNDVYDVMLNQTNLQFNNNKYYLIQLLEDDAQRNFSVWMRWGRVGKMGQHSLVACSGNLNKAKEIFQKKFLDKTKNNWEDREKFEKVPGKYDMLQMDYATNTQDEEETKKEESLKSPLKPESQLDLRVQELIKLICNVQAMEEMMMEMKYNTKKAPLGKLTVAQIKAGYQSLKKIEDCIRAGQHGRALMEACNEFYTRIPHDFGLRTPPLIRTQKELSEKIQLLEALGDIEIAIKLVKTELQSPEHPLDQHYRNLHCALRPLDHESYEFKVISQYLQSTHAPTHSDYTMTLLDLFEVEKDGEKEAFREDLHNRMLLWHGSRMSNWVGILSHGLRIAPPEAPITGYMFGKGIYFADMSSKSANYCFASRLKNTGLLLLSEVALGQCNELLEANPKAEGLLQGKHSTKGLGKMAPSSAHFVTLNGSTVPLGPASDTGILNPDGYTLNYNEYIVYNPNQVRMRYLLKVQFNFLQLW
Experimental: as §1

[3] = system: DLD-1 BRCA2(−/−) cells; experiment: Cell growth inhibition assay (CellTiter-Glo), DLD-1 BRCA2(−/−); format: cell-based; conditions: Homo sapiens, DLD-1, 168 h; 200 cells/well, 7 days, CellTiter Glo 2.0; read-out: DLD-1 BRCA2(−/−) pEC50 (converted)
Experimental: (§2) Cell proliferation was measured through the cell viability assay using DLD-1 BRCA2(−/−) and parental isogenic pair and MDA-MB-436 (mutated BRCA1) cell lines. The CellTiter-Glo (CTG) based cell viability assay is designed to determine the number of viable cells in the culture because of compound effect, by quantifying ATP, which indicates the presence of metabolically active cells.
(§3) DLD-1 BRCA2(−/−) and parental isogenic pair were cultured in RPMI 1640 supplemented with […] (FBS), and […] cells were cultured in DMEM supplemented with 10% FBS. Both were cultured at 37° C. with […]. Invention compounds were distributed to the 384 well plate (Corning, 3764) using Echo acoustic liquid handler to form a 1:3 serially diluted final concentration with top dose of 10 or 30 μM. The cells were seeded into the plate in the density of 50 cells/well (DLD-1 parental), 200 cells/well (DLD-1 BRCA2−/−), or 500 cells/well (MDA-MB-436). After a short spun, the cells were cultured in a well moisturized incubator at 37° C. with 5% CO2 for 7 days without disturbance. The cell viability was measured by CellTiter Glo 2.0 assay kit (Promega, G9243), and growth inhibition rate was calculated and plotted against final compound concentration, and the data were fitted in Xfit to generate IC50 values.

[4] = system: MDA-MB-436 (mutated BRCA1) cells; experiment: Cell growth inhibition assay (CellTiter-Glo), MDA-MB-436; format: cell-based; conditions: Homo sapiens, MDA-MB-436, 168 h, 500 cells/well, 7 days, CellTiter Glo 2.0; read-out: MDA-MB-436 pEC50 (converted)
Experimental: as §2, §3

T1 sequence (P09874 whole entry): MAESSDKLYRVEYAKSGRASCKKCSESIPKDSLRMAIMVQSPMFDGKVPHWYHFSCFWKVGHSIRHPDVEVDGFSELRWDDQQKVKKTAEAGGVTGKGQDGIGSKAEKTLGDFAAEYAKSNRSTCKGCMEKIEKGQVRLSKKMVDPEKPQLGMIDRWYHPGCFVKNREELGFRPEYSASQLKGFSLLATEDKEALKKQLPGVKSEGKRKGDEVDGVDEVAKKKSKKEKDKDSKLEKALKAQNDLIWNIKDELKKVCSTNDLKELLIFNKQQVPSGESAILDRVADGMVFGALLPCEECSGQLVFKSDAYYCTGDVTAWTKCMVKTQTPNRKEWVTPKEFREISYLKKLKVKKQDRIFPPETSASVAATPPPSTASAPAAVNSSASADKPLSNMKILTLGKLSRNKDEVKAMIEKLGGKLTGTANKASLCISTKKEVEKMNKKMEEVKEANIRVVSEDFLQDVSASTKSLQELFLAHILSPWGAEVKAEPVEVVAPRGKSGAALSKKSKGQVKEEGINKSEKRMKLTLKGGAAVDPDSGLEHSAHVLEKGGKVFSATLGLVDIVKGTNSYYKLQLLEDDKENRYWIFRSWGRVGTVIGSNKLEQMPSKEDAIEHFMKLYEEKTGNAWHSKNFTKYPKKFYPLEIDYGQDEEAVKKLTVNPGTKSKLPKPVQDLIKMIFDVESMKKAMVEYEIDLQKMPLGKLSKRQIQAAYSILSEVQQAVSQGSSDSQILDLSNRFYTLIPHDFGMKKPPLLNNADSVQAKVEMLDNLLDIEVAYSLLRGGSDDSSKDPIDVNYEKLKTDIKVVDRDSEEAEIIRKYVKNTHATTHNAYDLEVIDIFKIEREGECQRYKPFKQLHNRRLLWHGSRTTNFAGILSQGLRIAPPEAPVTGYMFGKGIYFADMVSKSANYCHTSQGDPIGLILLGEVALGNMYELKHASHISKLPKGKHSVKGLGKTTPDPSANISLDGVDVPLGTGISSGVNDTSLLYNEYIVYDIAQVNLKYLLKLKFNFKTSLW

SMILES	IC50 [1]	IC50 [2]	EC50 [3]	EC50 [4]
CCc1cc2ncc(CN3CCN(c4ccc(C#N)nc4)[C@H]4C[C@H]43)cc2[nH]c1=O (single isomer, unassigned) [Example 14]	0.00501 µM	6.31 µM	0.0631 µM	0.0501 µM
CCc1cc2ncc(CN3CCN(c4ccc(C#N)nc4)[C@@H]4C[C@@H]43)cc2[nH]c1=O (single isomer, unassigned) [Example 15]	0.00501 µM	10 µM	0.00794 µM	0.00501 µM
Cc1cc2ncc(CN3CCN(c4ccc(C#N)cn4)[C@H]4C[C@H]43)cc2[nH]c1=O (single isomer, unassigned) [Example 19]	0.00631 µM	> 100 µM	0.2 µM	0.158 µM
N#Cc1ccc(N2CCN(Cc3cnc4cc(C5CC5)c(=O)[nH]c4c3)[C@H]3C[C@H]32)nc1 (single isomer, unassigned) [Example 20]	0.00501 µM	2.51 µM	0.0501 µM	0.0398 µM
Cc1cc2ncc([C@@H](C)N3CCN(c4ccc(C#N)cn4)[C@H](C)C3)cc2[nH]c1=O (single isomer, unassigned) [Example 28, rel-6-[(2R)-2-methyl-4-[(1R*)-1-(7-methyl-6-oxo-5H-1,5-naphthyridin-3-yl)ethyl]piperazin-1-yl]pyridine-3-carbonitrile]	> 0.1 µM	> 100 µM	0.0631 µM	0.0631 µM
Cc1cc2ncc([C@H](C)N3CCN(c4ccc(C#N)cn4)[C@H](C)C3)cc2[nH]c1=O (single isomer, unassigned) [Example 29]	0.00631 µM	> 100 µM	0.0631 µM	0.0794 µM
Cc1cc2ncc([C@H](C)N3CCN(c4ccc(C#N)cn4)CC3)cc2[nH]c1=O (single isomer, unassigned) [Example 32]	0.00398 µM	> 100 µM	0.0126 µM	0.00794 µM
C#Cc1cc2ncc(CN3CCN(c4ccc(C#N)nc4)CC3)cc2[nH]c1=O [Example 1, 5-{4-[(7-ethynyl-6-oxo-5H-1,5-naphthyridin-3-yl)methyl]piperazin-1-yl}pyridine-2-carbonitrile]	0.0158 µM	–	0.0631 µM	0.0631 µM
CCc1cc2ncc(CN3CCN(c4ccc(F)cn4)CC3)cc2[nH]c1=O [Example 4]	–	–	0.002 µM	0.002 µM
CCc1nc2cc(F)c(CN3CCN(c4ccc(C#N)cn4)CC3)cc2[nH]c1=O [Example 12, 6-{4-[(2-ethyl-7-fluoro-3-oxo-4H-quinoxalin-6-yl)methyl]piperazin-1-yl}pyridine-3-carbonitrile]	0.00794 µM	–	0.01 µM	0.01 µM
N#Cc1ccc(N2CCN(Cc3cnc4cc(C5CC5)c(=O)[nH]c4c3)CC2)nc1 [Example 17]	–	–	0.00251 µM	0.002 µM
O=c1[nH]c2cc(CN3CCN(c4ccc(F)cn4)CC3)cnc2cc1Cl [Example 47, 3-chloro-7-{[4-(5-fluoropyridin-2-yl)piperazin-1-yl]methyl}-1H-1,5-naphthyridin-2-one]	0.01 µM	–	0.00251 µM	0.00794 µM
Cc1nc2c(F)cc(CN3CCN(c4ccc(C#N)cn4)CC3)cc2[nH]c1=O [Example 49, 6-{4-[(8-fluoro-2-methyl-3-oxo-4H-quinoxalin-6-yl)methyl]piperazin-1-yl}pyridine-3-carbonitrile]	0.01 µM	–	0.01 µM	0.0126 µM
CCc1cc2ncc(CN3CCN(c4ncc(C#N)cc4F)CC3)cc2[nH]c1=O [Example 54]	0.0631 µM	–	0.0631 µM	0.0794 µM
CCc1cc2ncc(CN3CCN(c4ncc(F)cc4C#N)CC3)cc2[nH]c1=O [Example 56]	0.0158 µM	–	0.1 µM	0.0631 µM
CCc1cc2ncc(CN3CCN(c4cnc(Cl)cc4C#N)CC3)cc2[nH]c1=O [Example 65]	–	–	0.00316 µM	0.00251 µM
Cc1nc2ccc(CN3CCN(c4ccc(C#N)cn4)CC3)c(F)c2[nH]c1=O [Example 70]	0.01 µM	–	0.0251 µM	0.0316 µM
Cc1cc2ccc(CN3CCN(c4ccc(C#N)cn4)CC3)c(F)c2[nH]c1=O [Example 71, 6-{4-[(8-fluoro-3-methyl-2-oxo-1H-quinolin-7-yl)methyl]piperazin-1-yl}pyridine-3-carbonitrile]	0.01 µM	–	0.0126 µM	0.0158 µM
Cc1nc2c(F)c(F)c(CN3CCN(c4ccc(C#N)cn4)CC3)cc2[nH]c1=O [Example 72]	0.0158 µM	–	0.0631 µM	0.0398 µM
Cc1nc2ccc(CN3CCN(c4ccc(C#N)nc4Cl)CC3)c(F)c2[nH]c1=O [Example 73]	0.0251 µM	–	0.02 µM	0.0158 µM
Cc1nc2ccc(CN3CCN(c4ccc(C#N)nc4F)CC3)c(F)c2[nH]c1=O [Example 74]	0.0158 µM	–	0.02 µM	0.0316 µM
Cc1c(C(F)F)c2ncc(CN3CCN(c4ccc(C#N)cn4)CC3)cc2[nH]c1=O [Example 82, 6-(4-((8-(difluoromethyl)-7-methyl-6-oxo-5,6-dihydro-1,5-naphthyridin-3-yl)methyl)piperazin-1-yl)nicotinonitrile]	0.0316 µM	–	0.1 µM	0.0398 µM
N#Cc1ccc(N2CCN(Cc3ccc4cc(Cl)c(=O)[nH]c4c3F)CC2)nc1 [Example 83, 6-{4-[(3-chloro-8-fluoro-2-oxo-1H-quinolin-7-yl)methyl]piperazin-1-yl}pyridine-3-carbonitrile]	0.01 µM	–	0.01 µM	0.00631 µM

Further lines, results first:

IC50 [1]	IC50 [2]	EC50 [3]	EC50 [4]	SMILES
–	–	0.00126 µM	0.001 µM	CCc1cc2ncc(CN3CCN(c4ccc(C#N)cc4F)CC3)cc2[nH]c1=O [Example 45]
0.01 µM	–	0.002 µM	0.00158 µM	N#Cc1ccc(N2CCN(Cc3cnc4cc(C5CC5)c(=O)[nH]c4c3)CC2)c(F)c1 [Example 46]
0.0251 µM	–	0.002 µM	0.00158 µM	Cc1cc2ncc(CN3CCN(c4ccc(C#N)cc4C#N)CC3)cc2[nH]c1=O [Example 50]
0.02 µM	–	0.00398 µM	0.00251 µM	Cc1cc2ncc(CN3CCN(c4ccc(Cl)cc4C#N)CC3)cc2[nH]c1=O [Example 51]
0.0126 µM	–	0.00631 µM	0.00501 µM	Cc1cc2ncc(CN3CCN(c4cc(F)c(F)cc4C#N)CC3)cc2[nH]c1=O [Example 53]
0.0631 µM	–	0.00158 µM	0.00126 µM	N#Cc1ccc(N2CCN(Cc3cnc4cc(C(F)F)c(=O)[nH]c4c3)CC2)c(F)n1 [Example 62]
0.0251 µM	–	0.000631 µM	0.000501 µM	Cc1cc(C#N)ccc1N1CCN(Cc2cnc3cc(C(F)F)c(=O)[nH]c3c2)CC1 [Example 75]
0.0631 µM	–	0.00501 µM	0.00501 µM	N#Cc1ccc(N2CCN(Cc3cnc4cc(Cl)c(=O)[nH]c4c3)CC2)c(F)c1 [Example 76]
0.0158 µM	–	0.00126 µM	0.001 µM	N#Cc1ccc(N2CCN(Cc3cnc4cc(C(F)F)c(=O)[nH]c4c3)CC2)c(C(F)F)c1 [Example 80]
0.01 µM	–	0.000631 µM	0.000631 µM	N#Cc1ccc(N2CCN(Cc3cnc4cc(C(F)F)c(=O)[nH]c4c3)CC2)c(Cl)n1 [Example 81]
